Key:
[1] = test system: CT26.WT colorectal cancer cells; assay: In vivo anti-tumour activity in CT26.WT syngeneic mouse model (second experiment)
Method: (§1) Murine triple-negative breast cancer EMT6 tumour cells (ATCC® CRL-2755™) and colorectal cancer CT26.WT cells (ATCC® CRL-2638™) were cultured and expanded in RPMI-1640 medium (Roswell Park Memorial Institute Medium-1640) with L-glutamine and sodium bicarbonate (Sigma-Aldrich, Macquarie Park, NSW, Australia) supplemented with 10% heat-inactivated foetal bovine serum (FBS). Cells were cultured in an incubator at 5% CO2 37° C.
(§2) In another experiment, mice bearing CT26.WT colorectal cancer cells were treated with vehicle (distilled water QD PO), compound 1 (100 mg/kg QD PO), an anti-PD-1 antibody ([…] ip), or compound 1 plus the anti-PD-1 antibody.

[2] = test system: EMT6 triple-negative breast cancer cells; assay: In vivo anti-tumour activity in mice with a breast cancer cell syngeneic allograft; conditions: 150 mg/kg QD PO
Method: as §1
(§3) EMT6 cells were harvested and re-suspended in a 1:1 mixture of Matrigel™ (#354234; Corning Life Sciences, Corning, NY, United States of America) and serum-free RPMI-1640 medium, and thereafter injected sub-cutaneously (sc) (7×10^5 cells in a volume of […]) into the right flank of each female BALB/c mouse. After the tumour volume reached ˜100 mm^3, the mice were randomised into two groups (n=4/group) and given vehicle (1% CMC in water), or compound 1 (150 mg/kg) once daily by oral administration (QD PO). […] The level of phosphorylated RB (p-S807/11) was also found to be reduced in the EMT6 tumours collected two hours post-final dose, confirming CDK4/6 inhibition (FIG. 1B). A reduction in the […], PDL-1, in the spleen samples of the mice isolated two hours post-final dose was also observed, indicating the immunotherapeutic potential of compound 1 (FIG. 1C).

[3] = test system: phosphorylated RB (p-S807/11); assay: Phosphorylated RB level in EMT6 tumours of treated mice; type: in vivo, mouse (female BALB/c); conditions: EMT6 tumours collected two hours post-final dose, 150 mg/kg QD PO
Method: as §3

PDL-1 = assay: PD-L1 level in samples of EMT6-bearing treated mice; type: in vivo, mouse (female BALB/c); conditions: spleen samples isolated two hours post-final dose, 150 mg/kg QD PO
Method: as §3

[4] = test system: CD3+, CD4+, CDK8+ and CD45+ T-cells; assay: Immune markers (T cell population in spleen) in CT26.WT-bearing treated mice; type: in vivo, mouse
Method: as §2

[5] = test system: CT26.WT colorectal cancer cells; assay: In vivo anti-tumour activity in mice with a colorectal cancer cell syngeneic allograft (first experiment); set-up: species or system mouse (female BALB/c)
Method: as §1
Similarly, mice bearing CT26.WT colorectal cancer cells were matched and randomised to vehicle or treatment groups (n=8/group). Female BALB/c mice with mean tumour volume ˜100 mm^3 were given vehicle (distilled water QD PO), compound 1 (100 mg/kg QD PO), an anti-PD1 antibody (RMP1-14-derived mouse monoclonal antibody; Assay Matrix Pty Ltd, Ivanhoe North, VIC, Australia), 200 μg/mouse/week by intraperitoneal (ip) administration) or compound 1 plus anti-PD-1 antibody.

Row | SMILES | TGI, used alone ([1]; 100 mg/kg QD PO alone, day 15 of dosing) | TGI, combination with anti-PD-1 antibody ([1]; 100 mg/kg QD PO plus anti-PD-1 antibody (150 g/mouse/week ip), day 15 of dosing) | anti-tumour efficacy of combination compared with anti-PD-1 alone ([1]; compound 1 plus anti-PD-1 antibody, p=0.03) | weight loss or overt toxicity ([2]; EMT6-bearing mice, throughout the study) | level of phosphorylated RB (p-S807/11) [3] | level of immune checkpoint protein ligand PDL-1 (PDL-1) | level of immune markers CD3+, CD4+, CDK8+ and CD45+ T-cells [4] | tumour growth inhibition (% TGI), used alone ([5]; 100 mg/kg QD PO alone, day 21 of dosing) | tumour growth inhibition (% TGI), combination with anti-PD-1 antibody ([5]; 100 mg/kg QD PO plus anti-PD-1 antibody 200 μg/mouse/week ip, day 21 of dosing) | survival of the mice, combination with anti-PD-1 antibody ([5]; 100 mg/kg QD PO plus anti-PD-1 antibody, p<0.001) | survival of the mice, single agent ([5]; 100 mg/kg QD PO, p<0.001) | tumour growth inhibition (% TGI) ([2]; EMT6 allograft, final day of tumour measurement)
1 | CCN1CCN(Cc2ccc(Nc3ncc(F)c(-c4sc(NC5CCCC5)nc4C)n3)nc2)CC1 [Compound 1, N-cyclopentyl-5-(2-((5-((4-ethylpiperazin-1-yl)methyl)pyridin-2-yl)amino)-5-fluoropyrimidin-4-yl)-4-methylthiazol-2-amine] | 77% | 91% | more effective | No significant weight loss or any overt toxicity | reduced | reduction | increased level | 75% | 91% | significantly prolong | significantly prolong | –
2 | CNc1nc(C)c(-c2nc(Nc3ccc(CN4CCN(C(C)C)CC4)cn3)ncc2F)s1 [Compound 12, 5-(5-fluoro-2-((5-((4-isopropylpiperazin-1-yl)methyl)pyridin-2-yl)amino)pyrimidin-4-yl)-N,4-dimethylthiazol-2-amine] | – | – | – | – | – | – | – | – | – | – | – | 47%

From patent US20250049796A1, “USE OF 4-THIAZOL-N-(PYRIDIN-2-YL)PYRIMIDIN-2-AMINE DERIVATIVES IN COMBINATION THERAPIES FOR CANCER” (Aucentra Therapeutics Pty Ltd, priority 2022, published 2025)
